For orientation: IC50 means the midpoint of a concentration-inhibition curve. A lower IC50 goes with greater potency.

Consider 22 compounds from patent US11970493B2, “Autotaxin inhibitor compounds” (ILDONG PHARMACEUTICAL CO., LTD., priority 2020, dated 2024).

The assay addresses hATX/ENPP2 (Homo sapiens, UniProt Q13822). Description: hATX/ENPP2 biochemical assay using 16:0-LPC as substrate (Amplex Red/choline oxidase/HRP fluorescence). The settings on record: hENPP2 2.5 nM, LPC (16:0) substrate. As to the method:
The enzyme is diluted in 50 mM Tris-HCl pH 8.0, 140 mM NaCl, 5 mM CaCl2, 0.01% Triton X-100 in a total volume of 5 μL. The aqueous solution of enzyme is added to the wells and incubated with different concentrations of the compounds at room temperature for 15 min. The reaction is started by the addition of 5 μL of 80 μM LPC (16:0) and 10 μL of the detection mixture containing 200 μM Amplex Red, 10 U/mL choline oxidase and 4 U/mL HRP. Fluorescence at 590 nm was measured kinetically with excitation at 530 nm. The slope of the curve (from 60 to 70 min of the reaction time) was used to calculate the compounds' IC50 values.
On to `CCc1nc2ccc(-c3cnc(N4CCC(NC(=O)C5(C#N)CC5)CC4)nc3)cn2c1N(C)c1nc(-c2ccc(F)cc2)c(C#N)s1` [Compound 20, 1-cyano-N-(1-(5-(3-((5-cyano-4-(4-fluorophenyl)thiazol-2-yl)(methyl)amino)-2-ethylimidazo[1,2-a]pyridin-6-yl)pyrimidin-2-yl)piperidin-4-yl) cyclopropane-1-carboxamide], for which the IC50 lay within 20 to 200 nM.
Regarding `CCc1nc2ccc(-c3cnc(NC4CCN(C(=O)C5(O)CC5)CC4)nc3)cn2c1N(C)c1nc(-c2ccc(F)cc2)c(C#N)s1` [Compound 21, 2-((2-ethyl-6-(2-((1-(1-hydroxycyclopropane-1-carbonyl)piperidin-4-yl)amino)pyrimidin-5-yl)imidazo[1,2-a]pyridin-3-yl)(methyl)amino)-4-(4-fluorophenyl) thiazole-5-carbonitrile], the IC50 lay in the range of 20 to 200 nM.
The same measure for `CCc1nc2ccc(-c3cnc(NC4CCNCC4)nc3)cn2c1N(C)c1nc(-c2ccc(F)cc2)c(C#N)s1` [Compound 22, 2-((2-ethyl-6-(2-(piperidin-4-ylamino)pyrimidin-5-yl)imidazo[1,2-a]pyridin-3-yl)(methyl)amino)-4-(4-fluorophenyl)thiazole-5-carbonitrile]: above 200 nM; for `CCc1nc2ccc(-c3cnc(N4CC(NC(=O)[C@H]5C[C@H](O)CN5)C4)nc3)cn2c1N(C)c1nc(-c2ccc(F)cc2)c(C#N)s1` [Compound 23, (2R,4S)—N-(1-(5-(3-((5-cyano-4-(4-fluorophenyl)thiazol-2-yl)(methyl)amino)-2-ethylimidazo[1,2-a]pyridin-6-yl)pyrimidin-2-yl)azetidin-3-yl)-4-hydroxypyrrolidine-2-carboxamide]: 20 to 200 nM.
In the case of `CCc1nc2ccc(-c3cnc(N4CC(NC(=O)[C@@H]5C[C@H](O)CN5)C4)nc3)cn2c1N(C)c1nc(-c2ccc(F)cc2)c(C#N)s1` [Compound 24, (2S,4S)—N-(1-(5-(3-((5-cyano-4-(4-fluorophenyl)thiazol-2-yl)(methyl)amino)-2-ethylimidazo[1,2-a]pyridin-6-yl)pyrimidin-2-yl)azetidin-3-yl)-4-hydroxy pyrrolidine-2-carboxamide], the 50% inhibitory concentration (IC50) fell in the range of 20 to 200 nM.
The same measure for `CCc1nc2ccc(-c3cnc(N4CC(NC(=O)[C@H]5C[C@@H](O)CN5)C4)nc3)cn2c1N(C)c1nc(-c2ccc(F)cc2)c(C#N)s1` [Compound 25, (2R,4R)—N-(1-(5-(3-((5-cyano-4-(4-fluorophenyl)thiazol-2-yl)(methyl)amino)-2-ethylimidazo[1,2-a]pyridin-6-yl)pyrimidin-2-yl)azetidin-3-yl)-4-hydroxypyrrolidine-2-carboxamide]: 20 to 200 nM.
For the compound `CCc1nc2ccc(-c3cnc(N4CC(NC(=O)[C@@H]5C[C@@H](O)CN5)C4)nc3)cn2c1N(C)c1nc(-c2ccc(F)cc2)c(C#N)s1` [Compound 26, (2S,4R)—N-(1-(5-(3-((5-cyano-4-(4-fluorophenyl)thiazol-2-yl)(methyl)amino)-2-ethylimidazo[1,2-a]pyridin-6-yl)pyrimidin-2-yl)azetidin-3-yl)-4-hydroxypyrrolidine-2-carboxamide], the IC50 was in the range of 20 to 200 nM.
The same measure for `CCc1nc2ccc(-c3cnc(N4CC(NC5CNC5)C4)nc3)cn2c1N(C)c1nc(-c2ccc(F)cc2)c(C#N)s1` [Compound 27, 2-((6-(2-(3-(azetidin-3-ylamino)azetidin-1-yl)pyrimidin-5-yl)-2-ethylimidazo[1,2-a]pyridin-3-yl)(methyl)amino)-4-(4-fluorophenyl)thiazole-5-carbonitrile]: 20 to 200 nM; for `CCc1nc2ccc(-c3cnc(N4CC(NC5(C#N)CC5)C4)nc3)cn2c1N(C)c1nc(-c2ccc(F)cc2)c(C#N)s1` [Compound 28, 2-((6-(2-(3-((1-cyanocyclopropyl)amino)azetidin-1-yl)pyrimidin-5-yl)-2-ethylimidazo[1,2-a]pyridin-3-yl)(methyl)amino)-4-(4-fluorophenyl)thiazole-5-carbonitrile]: 20 to 200 nM.
As for `CCc1nc2ccc(-c3cnc(N4CC(NC(=O)C5(C#N)CC5)C4)nc3)cn2c1N(C)c1nc(-c2ccc(F)cc2)c(C#N)s1` [Compound 29, 1-cyano-N-(1-(5-(3-((5-cyano-4-(4-fluorophenyl)thiazol-2-yl)(methyl)amino)-2-ethylimidazo[1,2-a]pyridin-6-yl)pyrimidin-2-yl)azetidin-3-yl)cyclopropane-1-carboxamide], the IC50 fell in the range of 20 to 200 nM.
As for `CCc1nc2ccc(-c3cnc(N4CC(NC(=O)C5(O)CC5)C4)nc3)cn2c1N(C)c1nc(-c2ccc(F)cc2)c(C#N)s1` [Compound 31, N-(1-(5-(3-((5-cyano-4-(4-fluorophenyl)thiazol-2-yl)(methyl)amino)-2-ethylimidazo[1,2-a]pyridin-6-yl)pyrimidin-2-yl)azetidin-3-yl)-1-hydroxycyclopropane-1-carboxamide], the IC50 lay within 20 to 200 nM.
The same measure for `CCc1nc2ccc(-c3cnc(N4CC(C(=O)NC5(C#N)CC5)C4)nc3)cn2c1N(C)c1nc(-c2ccc(F)cc2)c(C#N)s1` [Compound 32, 1-(5-(3-((5-cyano-4-(4-fluorophenyl)thiazol-2-yl)(methyl)amino)-2-ethylimidazo[1,2-a]pyridin-6-yl)pyrimidin-2-yl)-N-(1-cyanocyclopropyl)azetidine-3-carboxamide]: at most 20 nM; for `CCc1nc2ccc(-c3cnc(N4CC(C(=O)NC5(CO)CC5)C4)nc3)cn2c1N(C)c1nc(-c2ccc(F)cc2)c(C#N)s1` [Compound 33, 1-(5-(3-((5-cyano-4-(4-fluorophenyl)thiazol-2-yl)(methyl)amino)-2-ethylimidazo[1,2-a]pyridin-6-yl)pyrimidin-2-yl)-N-(1-(hydroxylmethyl)cyclopropyl)azetidine-3-carboxamide]: at most 20 nM.
The same measure for `CCc1nc2ccc(-c3cnc(NC4CNC4)nc3)cn2c1N(C)c1nc(-c2ccc(F)cc2)c(C#N)s1` [Compound 34, 2-((6-(2-(azetidin-3-ylamino)pyrimidin-5-yl)-2-ethylimidazo[1,2-a]pyridin-3-yl)(methyl)amino)-4-(4-fluorophenyl)thiazole-5-carbonitrile]: above 200 nM.
Then `CCc1nc2ccc(-c3cnc(NC4CN(C(=O)C5(O)CC5)C4)nc3)cn2c1N(C)c1nc(-c2ccc(F)cc2)c(C#N)s1` [Compound 35, 2-((2-ethyl-6-(2-((1-(1-hydroxycyclopropane-1-carbonyl)azetidin-3-yl)amino)pyrimidin-5-yl)imidazo[1,2-a]pyridin-3-yl) (methyl)amino)-4-(4-fluorophenyl)thiazole-5-carbonitrile], with 20 to 200 nM; and `CCc1nc2ccc(-c3cnc(NC4CN(C(=O)C5CNC5)C4)nc3)cn2c1N(C)c1nc(-c2ccc(F)cc2)c(C#N)s1` [Compound 36, 2-((6-(2-((1-(azetidine-3-carbonyl)azetidin-3-yl)amino)pyrimidin-5-yl)-2-ethylimidazo[1,2-a]pyridin-3-yl)(methyl)amino)-4-(4-fluorophenyl) thiazole-5-carbonitrile], with 20 to 200 nM.
`CCc1nc2ccc(-c3cnc(NC4CN(C(=O)N5CC(O)C5)C4)nc3)cn2c1N(C)c1nc(-c2ccc(F)cc2)c(C#N)s1` [Compound 37, 2-((2-ethyl-6-(2-((1-(3-hydroxyazetidine-1-carbonyl)azetidin-3-yl)amino)pyrimidin-5-yl)imidazo[1,2-a]pyridin-3-yl)(methyl)amino)-4-(4-fluorophenyl)thiazole-5-carbonitrile] displayed a 50% inhibitory concentration (IC50) of 20 to 200 nM.
The same measure for `CCc1nc2ccc(-c3cnc(NCC4CN(C(=O)N5CC(O)C5)C4)nc3)cn2c1N(C)c1nc(-c2ccc(F)cc2)c(C#N)s1` [Compound 39, 2-((2-ethyl-6-(2-(((1-(3-hydroxyazetidine-1-carbonyl)azetidin-3-yl)methyl)amino)pyrimidin-5-yl)imidazo[1,2-a]pyridin-3-yl)(methyl)amino)-4-(4-fluorophenyl)thiazole-5-carbonitrile]: 20 to 200 nM; for `CCc1nc2ccc(-c3cnc(NCC4CN(C(=O)C5CNC5)C4)nc3)cn2c1N(C)c1nc(-c2ccc(F)cc2)c(C#N)s1` [Compound 40, 2-((6-(2-(((1-(azetidine-3-carbonyl)azetidin-3-yl)methyl)amino)pyrimidin-5-yl)-2-ethylimidazo[1,2-a]pyridin-3-yl)(methyl)amino)-4-(4-fluorophenyl)thiazole-5-carbonitrile]: above 200 nM; for `CCc1nc2ccc(-c3cnc(NCC4CN(C(=O)C5(O)CC5)C4)nc3)cn2c1N(C)c1nc(-c2ccc(F)cc2)c(C#N)s1` [Compound 41, 2-((2-ethyl-6-(2-(((1-(1-hydroxycyclopropane-1-carbonyl)azetidin-3-yl)methyl)amino)pyrimidin-5-yl)imidazo[1,2-a]pyridin-3-yl)(methyl)amino)-4-(4-fluorophenyl)thiazole-5-carbonitrile]: 20 to 200 nM.
Then `CCc1nc2ccc(-c3cnc(N4CCN(CC(=O)N5CC[C@@H](O)C5)CC4)nc3)cn2c1N(C)c1nc(-c2ccc(F)cc2)c(C#N)s1` [Compound 45, (R)-2-((2-ethyl-6-(2-(4-(2-(3-hydroxypyrrolidin-1-yl)-2-oxoethyl)piperazin-1-yl)pyrimidin-5-yl)imidazo[1,2-a]pyridin-3-yl)(methyl)amino)-4-(4-fluorophenyl)thiazole-5-carbonitrile], with at most 20 nM; and `CCc1nc2ccc(-c3cnc(N4CCN(CC(=O)N5CC[C@H](O)C5)CC4)nc3)cn2c1N(C)c1nc(-c2ccc(F)cc2)c(C#N)s1` [Compound 46, (S)-2-((2-ethyl-6-(2-(4-(2-(3-hydroxypyrrolidin-1-yl)-2-oxoethyl)piperazin-1-yl)pyrimidin-5-yl)imidazo[1,2-a]pyridin-3-yl)(methyl)amino)-4-(4-fluorophenyl)thiazole-5-carbonitrile], with at most 20 nM.
